Source: US20100124555A1, “Compositions and Methods for Treating Pancreatic Tumors” (UNIVERSITE DE LA MEDITERRANEE, priority 2007, published 2010)

Experiments:
[1] = tested on: Bcl-2, Bax, caspases 8 and 9, PARP in SOJ-6 cells; assay: SDS-PAGE and western blot of apoptosis proteins; type: cell-based, human; conditions: SOJ-6, 24 hours
Experimental: SOJ-6 cells were grown in 6-well culture plates in RPMI 1640 medium with 10% FCS. At subconfluency, the medium was removed and replaced for 24 hours by fresh RPMI medium with 10% inactivated FCS. SOJ-6 cells were then incubated with mAb16D10 or Cisplatin for 24 hours. At the end of incubation, cells were washed three times with ice-cold PBS (without […] and Mg^++) harvested and pelleted by centrifugation. Pellets were washed twice and lysed at 4° C. in 0.5 ml of lysis buffer (10 mM Tris-HCl pH 7.4, 150 mM NaCl, 1% Triton X-100, 1 mM benzamidine and phosphatase inhibitors). After lysis, homogenates were clarified by centrifugation at 10,000 g for 10 min at 4° C. An aliquot was saved for protein determination using the bicinchoninic acid assay (Pierce, Rockford, Ill.). Proteins (50 μg/lane) in reducing SDS buffer were separated onto 10, 12, or 15% polyacrylamide with 0.1% SDS (according to the molecular weight range of proteins to be separated). After electrophoretic migration, proteins were silver stained. Alternatively, proteins were transferred onto nitrocellulose membranes using a Mini Transblot electrophoretic cell (BioRad, Hercule, Oreg.), and transferred proteins were immunodetected by using appropriate primary and secondary antibodies. After washes, membranes were developed with a chemoluminescent substrate according to the manufacturer's instructions (Roche Diagnostics, Switzerland). In each experiment, a control was included by omitting primary antibodies or by using a non-immune serum.

[2] = tested on: SOJ-6 cells; assay: MTT cell growth and proliferation assay, SOJ-6; type: cell-based, human; conditions: SOJ-6, 24 hours, gemcitabine 0 to 10 μM or cisplatin 0 to 40 μM
[3] = tested on: SOJ-6 cells; assay: Nuclear staining with DAPI (nuclear fragmentation); type: cell-based, human; conditions: RPMI induced no apoptosis
Experimental: After treatment with mAb16D10 or cisplatin, cells were washed in ice-cold PBS, fixed and permeablized with 70% ethanol for 5 min at […] and staining with diluted 1/1000 DAPI solution in PBS for 1 min at room temperature. The cells were then washed with PBS. The nuclear morphology of cells was examined by fluorescence microscopy.

[4] = tested on: PANC-1 cells; assay: MTT cell growth and proliferation assay, PANC-1; type: cell-based, human; conditions: PANC-1, 24 hours, gemcitabine 0 to 10 μM or cisplatin 0 to 40 μM
Experimental: (§1) Cell proliferation was determined using MTT assay as previously described (Mosmann et al., 1983 J Immunol Methods, 65(1-2):55-63). Briefly, cells were seeded at subconfluence in appropriate complete media containing 10% FCS in 96-well culture plates. Media were replaced for 24 h by fresh media with 10% inactivated FCS, including increasing concentrations of antibodies directed against FAPP (pAbL64, mAbJ28 and mAb16D10). Cells were washed with PBS and incubated with 100 μl of MTT (0.5 mg/ml) in complete media for 3 h, washed with PBS and finally incubated with DMSO for 30 min at 37° C. Cell growth was determined by measuring absorbance at 550 nm using a MR 5000 microplate spectrophotometer. All independent determinations were done in triplicate and compared to control.

[5] = tested on: 16D10 epitope on the BSDL/FAPP polypeptide of SOJ-6 cells; assay: 16D10 epitope expression on drug-treated cells (immunofluorescence and flow cytometry); type: cell-based, human; conditions: for cell morphology of drug-treated cells: SOJ-6, immunofluorescence; for 16D10 staining by immunofluorescence of drug-treated cells: SOJ-6 on glass slides; for Average (16D10 binding, flow cytometry) / 16D10 epitope expression: SOJ-6 treated with 20 μM cisplatin or 5 μM gemcitabine; for Average (16D10 binding, flow cytometry): control 418.7 +/− 50.5; for 16D10 epitope expression: change versus control
Experimental: Antibody 16D10 binding to SOJ-6 cells following treatment with chemotherapeutic agents was tested in order to assess whether gemcitabine or cisplatin affect the expression of the 16D10 epitope on the BSDL/FAPP polypeptide. Antibody 16D10 binding was assessed by immunofluorescence and flow cytometry following treatment of SOJ-6 cells with 20 μM cisplatin or 5 μM gemcitabine.
For immunofluorescence, SOJ-6 cells were cultured on glass slides and treated or not with gemcitabine or cisplatin, fixed and incubated in the presence of 16D10 and a secondary antibody coupled to fluorescein. Slides were assessed with fluorescence microscope.

[6] = tested on: SOJ-6 cells; assay: MTT cell growth and proliferation assay, SOJ-6; type: cell-based, human; conditions: SOJ-6 treated with raft-disrupting drug or glycosphingolipid biosynthesis inhibitor (10 μM), with mAb16D10
Experimental: as §1

[7] = tested on: SOJ-6 cells; assay: Apoptosis by caspase activity (CaspACE FITC-VAD-fmk in situ marker); type: cell-based, human; conditions: SOJ-6, 24 hours; 16D10 25 μg/ml, recombinant chimeric 16D10 5 μg/ml
Experimental: Cells grown in 8-well plates (Polystyrene vessel, BD Falcon) were treated with mAb16D10 or mouse IgM in RPMI with inactivated FCS for 24 hours prior to the addition of CaspACE FITC-VAD-fmk in situ marker (Promega) at a final concentration of 10 μM in the culture medium according to manufacturer's instructions. Then cells were washed in PBS, fixed for 15 minutes in 2% paraformaldehyde, and washed once again. Upon caspase action on FITC-VAD-fmk, apoptotic cells become fluorescent and the number of fluorescent cells was determined in triplicate on collections of 10 fields randomly examined under the fluorescent microscope.

[8] = tested on: pancreatic cancers; conditions: patients with pancreatic cancer; cited from earlier work
[9] = biological target: PANC-1; assay: isotype control in indirect immunofluorescence flow cytometry (FL1-H) on PANC-1 cells (no FAPP); main peak near the negative control with a tail to about 100-200 FL1-H; antibody concentration not given; row 'Control -': Mean 4,60
[10] = biological target: PANC-1; assay: isotype control in indirect immunofluorescence flow cytometry (FL1-H) on PANC-1 cells (no FAPP); antibody concentration not given; row 'Control -': Median 3,22
[11] = biological target: feto-acinar pancreatic protein (FAPP), oncofetal glycoisoform of pancreatic bile salt-dependent lipase (BSDL), on the surface of SOJ-6 human pancreatic tumor cells (human) (UniProt P19835); assay: isotype control in indirect immunofluorescence flow cytometry (FL1-H) on SOJ-6 cells; broad histogram from about 2 to about 300 FL1-H, between the negative control and mAb16D10; antibody concentration not given; row 'Control -': Mean 3,43
[12] = biological target: feto-acinar pancreatic protein (FAPP), oncofetal glycoisoform of pancreatic bile salt-dependent lipase (BSDL), on the surface of SOJ-6 human pancreatic tumor cells (human) (UniProt P19835); assay: isotype control in indirect immunofluorescence flow cytometry (FL1-H) on SOJ-6 cells; antibody concentration not given; row 'Control -': Median 3,02
[13] = tested on: NK cells; assay: NK cell activation (ADCC): CD107 mobilization and IFN-γ production by flow cytometry; type: cell-based, human; conditions: presence of SOJ-6 cells
Experimental: Thawed purified human NK cells stimulated or not overnight with 100 UI/mL of IL-2 were mixed with SOJ-6 or B221 cell lines at an effector/target ratio equal to 1, alone or in the presence of rec16D10 (30 μg/mL) or rituxan (10 μg/mL). Cells were then incubated for 4 hours at 37° C. in the presence of FITC conjugated anti-CD107 mAbs (Becton Dickinson) and monensin (sigma). After incubation, cells were washed in PBS containing 2 mM EDTA to disrupt cell conjugates and stained for extracellular markers (PC5 conjugated anti-CD56 and PC7 conjugated anti-CD3 purchased from Beckman coulter). Cells were then fixed and permeabilized using IntraPrep reagent (Beckman Coulter). […] Samples were then analysed on FACScanto (Becton Dickinson).
The chimeric antibody rec16D10 (30 μg/ml) was incubated with target SOJ-6 cells together with NK cells, with or without overnight treatment with IL-2 (100 U/ml) (FIG. 19). As a control, the Rituxan antibody (10 μg/ml) was used with target B221 cells. Effector cells and target cells were used at a ratio of: 1/1 (100000 NK/well). Thawed purified NK cells from two donors (NK1 and NK2) were incubated with the antibodies and target cells. Activation of NK cells was examined by virtue of CD 107 staining and IFN-γ secretion. […] Under similar conditions, approximately 30% of NK1 and NK2 cells secreted IFN-γ (vs. less than 16% and 13% in the absence of antibody or with Rituxan in NK1 and NK2 cells, respectively) (FIG. 21).

[14] = tested on: SOJ-6 cells; assay: Annexin V / PI apoptosis assay; type: cell-based, human; conditions: antibodies 20 μg/ml, tunicamycin 25 or 50 μg/ml
Experimental: SOJ-6 cells (20.10^4 cells per well) were seeded onto 24 wells plates 72H before to start the experiment. Cells were incubated either with 20 μg/ml 16D10 IgM, or 20 μg/ml of a further recombinant 16D10 IgG1 antibody which contained the 16D10 variable regions linked fused to a human IgG1 constant region and human kappa light region for the heavy and light chains respectively, 25 μg/ml Tunicamycin or 50 μg/ml Tunicamycin. The AnnexinV/PI stainings were performed after 24H of culture using the AnnexinV-FITC Apoptosis Detection Kit I (BD Pharmingen) according to the manufacturer instructions. Stainings were acquired on a FACScan (Becton Dickinson, San Jose, Calif.) and results were analysed using FlowJo Software.

Sequence of feto-acinar pancreatic protein (FAPP), oncofetal glycoisoform of pancreatic bile salt-dependent lipase (BSDL), on the surface of SOJ-6 human pancreatic tumor cells (human) (P19835 21-753): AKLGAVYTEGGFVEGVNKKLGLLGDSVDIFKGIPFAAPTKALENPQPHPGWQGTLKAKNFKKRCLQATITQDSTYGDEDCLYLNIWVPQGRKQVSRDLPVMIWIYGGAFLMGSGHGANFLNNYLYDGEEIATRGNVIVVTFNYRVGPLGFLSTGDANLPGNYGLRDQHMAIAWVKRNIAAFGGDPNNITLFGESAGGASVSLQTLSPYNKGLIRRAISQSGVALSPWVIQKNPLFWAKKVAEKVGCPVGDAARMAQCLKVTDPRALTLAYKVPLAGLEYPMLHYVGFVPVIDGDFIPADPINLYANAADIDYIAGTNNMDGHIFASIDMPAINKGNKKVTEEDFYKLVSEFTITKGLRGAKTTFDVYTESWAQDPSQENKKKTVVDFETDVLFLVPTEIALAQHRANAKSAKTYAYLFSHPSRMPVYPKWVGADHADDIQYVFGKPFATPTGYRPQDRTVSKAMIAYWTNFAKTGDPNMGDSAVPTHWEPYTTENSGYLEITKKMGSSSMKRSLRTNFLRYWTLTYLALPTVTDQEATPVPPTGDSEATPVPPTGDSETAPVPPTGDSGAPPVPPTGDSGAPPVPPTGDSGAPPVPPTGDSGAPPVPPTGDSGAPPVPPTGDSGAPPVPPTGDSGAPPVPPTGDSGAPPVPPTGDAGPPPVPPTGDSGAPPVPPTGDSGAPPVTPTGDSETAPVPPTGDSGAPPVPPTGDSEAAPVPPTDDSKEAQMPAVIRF

N.N.[Cl][Pt][Cl] [Cisplatin, cis-diaminedichloridoplatinum(II)]
activation of caspase 9 and PARP (immunodetection) [1]: activated | proliferation by MTT assay [2]: dose dependent decrease in proliferation is seen for both cell lines | apoptosis observed by DAPI staining (nuclear fragmentation) [3]: low level of apoptosis | proliferation by MTT assay [4]: dose dependent decrease in proliferation is seen for both cell lines | 16D10 surface binding of drug-treated cells (flow cytometry, in words) ([5]; SOJ-6): decrease in expression of the 16D10 epitope | cell morphology of drug-treated cells [5]: clear morphological changes | 16D10 staining by immunofluorescence of drug-treated cells [5]: showed staining with 16D10 | Average (16D10 binding, flow cytometry) [5]: 324.6 +/− 26.3 | 16D10 epitope expression [5]: −32.5

CCCCC[C@@H](O)[C@H]1C(=O)O[C@H](C)[C@@H](O)/C=C/C=C/C=C/C=C/C=C(\C)[C@@H](O)C[C@H](O)C[C@H](O)C[C@H](O)C[C@H](O)C[C@H](O)C[C@@H]1O [Filipin]
influence on the antiproliferative effect of mAb16D10 [6]: decreased

CCCC[C@@H](C)[C@@H](OC(=O)C[C@@H](CC(=O)O)C(=O)O)[C@H](C[C@@H](C)C[C@H](O)CCCC[C@@H](O)C[C@H](O)[C@H](C)N)OC(=O)C[C@@H](CC(=O)O)C(=O)O [Fumonisin 1, Fumonisin B1]
influence on the antiproliferative effect of mAb16D10 [6]: neither L-cyclo-serine (LCS) (an inhibitor of serine palmitoyltransferase) nor Fumonisin 1 or 2 (both inhibitors of dihydroceramide synthetase) interfered

CCCC[C@@H](C)[C@@H](OC(=O)C[C@@H](CC(=O)O)C(=O)O)[C@H](C[C@@H](C)CCCCCC[C@@H](O)C[C@H](O)[C@H](C)N)OC(=O)C[C@@H](CC(=O)O)C(=O)O [Fumonisin 2, Fumonisin B2]
influence on the antiproliferative effect of mAb16D10 [6]: neither L-cyclo-serine (LCS) (an inhibitor of serine palmitoyltransferase) nor Fumonisin 1 or 2 (both inhibitors of dihydroceramide synthetase) interfered

Nc1ccn(C2OC(CO)C(O)C2(F)F)c(=O)n1 (stereo not shown) [Gemcitabine, 4-amino-1-[3,3-difluoro-4-hydroxy-5-(hydroxymethyl)tetrahydrofuran-2-yl]-1H-pyrimidin-2-one]
activation of caspase 9 and PARP (immunodetection) [1]: activated | apoptosis by caspase activity (number of apoptotic cells compared to control) [7]: induce apoptosis on SOJ-6 cells | proliferation by MTT assay [2]: a decrease in proliferation is seen only in SOJ-6 cells | proliferation by MTT assay [4]: relatively resistant to gemcitabine | cell morphology of drug-treated cells [5]: clear morphological changes | 16D10 staining by immunofluorescence of drug-treated cells [5]: showed staining with 16D10 | Average (16D10 binding, flow cytometry) [5]: 419.0 +/− 36.2 | 16D10 epitope expression [5]: 0 | improvement in survival at one year compared to untreated patients [8]: 18%

N[C@H]1CONC1=O [L-cyclo-serine]
influence on the antiproliferative effect of mAb16D10 [6]: neither L-cyclo-serine (LCS) (an inhibitor of serine palmitoyltransferase) nor Fumonisin 1 or 2 (both inhibitors of dihydroceramide synthetase) interfered

CCCCCCCCCC(=O)NC(CN1CCOCC1)C(O)c1ccccc1 (stereo not shown) [PDMP, Phenyl-2-decanoylamino-3-morpholino-1-propanol]
influence on the antiproliferative effect of mAb16D10 [6]: impaired the effect of mAb16D10 on SOJ-6 cell proliferation

IgM mouse SIGMA (antibody)
Mean [9]: 13 | Median [10]: 4.61 | Mean [11]: 86.7 | Median [12]: 19.8

Rituxan: Rituxan antibody used as a control with target B221 cells [reference compound]
NK1 cells secreting IFN-γ ([13]; donor NK1, IL-2 treated): less than 16% | CD 107-positive staining of NK1 cells ([13]; donor NK1, IL-2 treated, E/T 1/1, rec16D10 30 μg/ml, Rituxan 10 μg/ml): < 30% | NK2 cells secreting IFN-γ ([13]; donor NK2, IL-2 treated): < 13% | CD 107-positive staining of NK2 cells ([13]; donor NK2, IL-2 treated, E/T 1/1, rec16D10 30 μg/ml, Rituxan 10 μg/ml): < 20%

methyl-β-cyclodextrin
influence on the antiproliferative effect of mAb16D10 [6]: decreased | influence on the antiproliferative effect of mAb16D10 ([6]; listed as MBCD): decreases or abolishes the cell growth inhibiting activity of antibody 16D10

tunicamycin [reference compound]
apoptosis by Annexin V and Annexin V/PI staining [14]: induced significant levels of apoptosis
